These compounds were tested against T1, HCV NS3-4A serine protease (full-length NS3-4A protein, genotype 1a, strain HCV-1) (Hepatitis C virus genotype 1a, UniProt P26664) (assay: HCV NS3-4A protease assay). Conditions: Protease IC50.
T1 construct: using the full-length NS3-4A protein (genotype 1a, strain HCV-1)
Format: biochemical
Experimental: The inhibitory activity of certain compounds of Table A against HCV NS3-4A serine protease is determined in a homogenous assay using the full-length NS3-4A protein (genotype 1a, strain HCV-1) and a commercially available internally-quenched fluorogenic peptide substrate as described by Taliani, M., et al. 1996 Anal. Biochem. 240:60-67, which is incorporated by reference in its entirety.

T1 sequence (P26664 1658-1711): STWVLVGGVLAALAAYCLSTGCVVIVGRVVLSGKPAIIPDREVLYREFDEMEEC
T1 sequence (P26664 1027-1657): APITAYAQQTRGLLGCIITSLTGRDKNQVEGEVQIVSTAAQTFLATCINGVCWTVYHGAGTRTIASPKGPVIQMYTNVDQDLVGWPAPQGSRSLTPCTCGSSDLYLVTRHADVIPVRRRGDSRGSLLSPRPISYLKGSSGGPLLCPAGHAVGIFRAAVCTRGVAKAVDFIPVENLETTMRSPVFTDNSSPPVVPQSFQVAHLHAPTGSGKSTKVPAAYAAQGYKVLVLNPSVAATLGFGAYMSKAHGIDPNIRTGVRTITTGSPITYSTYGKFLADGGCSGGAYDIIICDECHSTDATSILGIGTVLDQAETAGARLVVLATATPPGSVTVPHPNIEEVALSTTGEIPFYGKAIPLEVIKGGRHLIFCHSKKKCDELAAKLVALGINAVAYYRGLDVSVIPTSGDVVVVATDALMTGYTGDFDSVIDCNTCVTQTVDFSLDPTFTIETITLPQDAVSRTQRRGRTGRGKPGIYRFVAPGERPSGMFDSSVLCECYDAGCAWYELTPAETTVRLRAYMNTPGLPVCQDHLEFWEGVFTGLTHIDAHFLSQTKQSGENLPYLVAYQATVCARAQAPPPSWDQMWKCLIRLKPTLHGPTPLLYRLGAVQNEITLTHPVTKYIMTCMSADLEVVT

Row | SMILES | IC50
1 | C=C[C@@H]1C[C@]1(NC(=O)[C@@H]1C[C@@]2(CN1C(=O)[C@@H](NC(=O)[C@@H](NC(=O)C1CNC(=O)N1)C(C)(C)C)C(C)(C)C)C(C)(C)C21CCC1)C(=O)NS(=O)(=O)C1CC1 (stereo partly drawn) [Compound 40, (5R,8S)-N-{(1R,2S)-1-[(cyclopropylsulfonyl)carba-moyl]-2-vinylcyclopropyl}-7-[(2S)-2-{[(2S)-3,3-dimethyl-2-{[(2-oxoimidazolidin-4-yl)carbonyl]amino}butanoyl]amino}-3,3-dimethylbutanoyl]-10,10-dimethyl-7-azadispiro[3.0.4.1]decane-8-carboxamide] | 10 nM
2 | C=C[C@@H]1C[C@]1(NC(=O)[C@@H]1C[C@@]2(CN1C(=O)[C@@H](NC(=O)[C@@H](NC(=O)c1ncn[nH]1)C(C)(C)C)C(C)(C)C)C(C)(C)C21CCC1)C(=O)NS(=O)(=O)C1CC1 [Compound 41, (5R,8S)-N-{(1R,2S)-1-[(cyclopropylsulfonyl)carba-moyl]-2-vinylcyclopropyl}-7-[(2S)-2-({(2S)-3,3-dimethyl-2-[(1H-1,2,4-triazol-5-ylcarbonyl)amino]butanoyl}amino)-3,3-dimethylbutanoyl]-10,10-dimethyl-7-azadispiro[3.0.4.1]decane-8-carboxamide] | 25 nM
3 | C=C[C@@H]1C[C@]1(NC(=O)[C@@H]1C[C@@]2(CN1C(=O)[C@@H](NC(=O)[C@@H](NC(=O)c1c[nH]c(=O)[nH]1)C(C)(C)C)C(C)(C)C)C(C)(C)C21CCC1)C(=O)NS(=O)(=O)C1CC1 [Compound 44, (5R,8S)-N-{(1R,2S)-1-[(cyclopropylsulfonyl)carba-moyl]-2-vinylcyclopropyl}-7-[(2S)-2-{[(2S)-3,3-dimethyl-2-{[(2-oxo-2,3-dihydro-1H-imidazol-4-yl)carbonyl]amino}butanoyl]amino}-3,3-dimethylbutanoyl]-10,10-dimethyl-7-azadispiro[3.0.4.1]decane-8-carboxamide] | 2 nM
4 | C=C[C@@H]1C[C@]1(NC(=O)[C@@H]1C[C@@]2(CN1C(=O)[C@@H](NC(=O)[C@H]1NC(=O)[C@@H]3CCCCN3CCCCCCC1(C)C)C(C)(C)C)C(C)(C)C21CCC1)C(=O)NS(=O)(=O)C1CC1 [Compound 53, (5R,8S)-N-{(1R,2S)-1-[(cyclopropylsulfonyl)carba-moyl]-2-vinylcyclopropyl}-7-[(2S)-2-({[(3S,15aS)-4,4-dimethyl-1-oxotetradecahydro-2H-pyrido[1,2-a][1,4]diazacyclododecin-3-yl]carbonyl}amino)-3,3-dimethylbutanoyl]-10,10-dimethyl-7-azadispiro[3.0.4.1]decane-8-carboxamide] | 3.5 nM
5 | C=C[C@@H]1C[C@]1(NC(=O)[C@@H]1C[C@@]2(CN1C(=O)[C@@H](NC(=O)[C@@H](NC(=O)N1CCN(C)CC1)C(C)(C)C)C(C)(C)C)C(C)(C)C21CCC1)C(=O)NS(=O)(=O)C1CC1 [Compound 55, (5R,8S)-N-{(1R,2S)-1-[(cyclopropylsulfonyl)carba-moyl]-2-vinylcyclopropyl}-7-[(2S)-2-{[(2S)-3,3-dimethyl-2-{[(4-methylpiperazin-1-yl)carbonyl]amino}butanoyl]amino}-3,3-dimethylbutanoyl]-10,10-dimethyl-7-azadispiro[3.0.4.1]decane-8-carboxamide] | 25 nM

Same assay, conditions: read-out: Protease IC50

Row | IC50 | SMILES
6 | 140 nM | C=C[C@@H]1C[C@]1(NC(=O)[C@@H]1C[C@@]2(CN1C(=O)[C@@H](NC(=O)O[C@H](C(=O)N(C)C)C(C)(C)C)C(C)(C)C)C(C)(C)C21CCC1)C(=O)NS(=O)(=O)C1CC1 [Compound 42, (1S)-1-(dimethylcarbamoyl)-2,2-dimethylpropyl [(1S)-1-{[(5R,8S)-8-({(1R,2S)-1-[(cyclopropylsulfonyl)carba-moyl]-2-vinylcyclopropyl}carbamoyl)-10,10-dimethyl-7-azadispiro[3.0.4.1]dec-7-yl]carbonyl}-2,2-dimethylpropyl]carbamate]
7 | 450 nM | C=C[C@@H]1C[C@]1(NC(=O)[C@@H]1C[C@@]2(CN1C(=O)[C@@H](CC(=O)OC(C)(C)C)C(C)(C)C)C(C)(C)C21CCC1)C(=O)NS(=O)(=O)C1CC1 [Compound 43, tert-butyl (3S)-3-{[(5R,8S)-8-({(1R,2S)-1-[(cyclopropylsulfonyl)carba-moyl]-2-vinylcyclopropyl}carbamoyl)-10,10-dimethyl-7-azadispiro[3.0.4.1]dec-7-yl]carbonyl}-4,4-dimethylpentanoate]
8 | 65 nM | C=C[C@@H]1C[C@]1(NC(=O)[C@@H]1C[C@@]2(CN1C(=O)[C@@H](NC(=O)[C@@H](CC(=O)OC(C)(C)C)C(C)(C)C)C(C)(C)C)C(C)(C)C21CCC1)C(=O)NS(=O)(=O)C1CC1 [Compound 45, tert-butyl (3S)-3-{[(1S)-1-{[(5R,8S)-8-({(1R,2S)-1-[(cyclopropylsulfonyl)carba-moyl]-2-vinylcyclopropyl}carbamoyl)-10,10-dimethyl-7-azadispiro[3.0.4.1]dec-7-yl]carbonyl}-2,2-dimethylpropyl]carbamoyl}-4,4-dimethylpentanoate]
9 | 150 nM | C=C[C@@H]1C[C@]1(NC(=O)[C@@H]1C[C@@]2(CN1C(=O)[C@@H](NC(=O)[C@@H](NS(=O)(=O)c1ccccc1)C(C)(C)C)C(C)(C)C)C(C)(C)C21CCC1)C(=O)NS(=O)(=O)C1CC1 [Compound 46, (5R,8S)-N-{(1R,2S)-1-[(cyclopropylsulfonyl)carba-moyl]-2-vinylcyclopropyl}-7-[(2S)-2-({(2S)-3,3-dimethyl-2-[(phenylsulfonyl)amino]butanoyl}amino)-3,3-dimethylbutanoyl]-10,10-dimethyl-7-azadispiro[3.0.4.1]decane-8-carboxamide]
10 | 65 nM | C=C[C@@H]1C[C@]1(NC(=O)[C@@H]1C[C@@]2(CN1C(=O)[C@@H](NC(=O)[C@@H](NS(C)(=O)=O)C(C)(C)C)C(C)(C)C)C(C)(C)C21CCC1)C(=O)NS(=O)(=O)C1CC1 [Compound 47, (5R,8S)-N-{(1R,2S)-1-[(cyclopropylsulfonyl)carba-moyl]-2-vinylcyclopropyl}-7-[(2S)-2-({(2S)-3,3-dimethyl-2-[(methylsulfonyl)amino]butanoyl}amino)-3,3-dimethylbutanoyl]-10,10-dimethyl-7-azadispiro[3.0.4.1]decane-8-carboxamide]
11 | 95 nM | C=C[C@@H]1C[C@]1(NC(=O)[C@@H]1C[C@@]2(CN1C(=O)[C@@H](NC(=O)[C@@H](NS(=O)(=O)N(C)C)C(C)(C)C)C(C)(C)C)C(C)(C)C21CCC1)C(=O)NS(=O)(=O)C1CC1 [Compound 48, (5R,8S)-N-{(1R,2S)-1-[(cyclopropylsulfonyl)carba-moyl]-2-vinylcyclopropyl}-7-[(2S)-2-{[(2S)-2-{[(dimethylamino)sulfonyl]amino}-3,3-dimethylbutanoyl]amino}-3,3-dimethylbutanoyl]-10,10-dimethyl-7-azadispiro[3.0.4.1]decane-8-carboxamide]
12 | 200 nM | C=C[C@@H]1C[C@]1(NC(=O)[C@@H]1C[C@@]2(CN1C(=O)[C@@H](NC(=O)[C@@H](NS(=O)(=O)c1ncn[nH]1)C(C)(C)C)C(C)(C)C)C(C)(C)C21CCC1)C(=O)NS(=O)(=O)C1CC1 [Compound 49, (5R,8S)-N-{(1R,2S)-1-[(cyclopropylsulfonyl)carba-moyl]-2-vinylcyclopropyl}-7-[(2S)-2-({(2S)-3,3-dimethyl-2-[(1H-1,2,4-triazol-5-ylsulfonyl)amino]butanoyl}amino)-3,3-dimethylbutanoyl]-10,10-dimethyl-7-azadispiro[3.0.4.1]decane-8-carboxamide]
13 | 20 nM | C=C[C@@H]1C[C@]1(NC(=O)[C@@H]1C[C@@]2(CN1C(=O)[C@@H](NC(=O)[C@@H](NS(=O)(=O)Cc1ccccc1)C(C)(C)C)C(C)(C)C)C(C)(C)C21CCC1)C(=O)NS(=O)(=O)C1CC1 [Compound 50, (5R,8S)-7-[(2S)-2-({(2S)-2-[(benzylsulfonyl)amino]-3,3-dimethylbutanoyl}amino)-3,3-dimethylbutanoyl]-N-{(1R,2S)-1-[(cyclopropylsulfonyl)carba-moyl]-2-vinylcyclopropyl}-10,10-dimethyl-7-azadispiro[3.0.4.1]decane-8-carboxamide]
14 | 250 nM | C=C[C@@H]1C[C@]1(NC(=O)[C@@H]1C[C@@]2(CN1C(=O)[C@@H](NC(=O)[C@@H](NS(=O)(=O)c1c(C)noc1C)C(C)(C)C)C(C)(C)C)C(C)(C)C21CCC1)C(=O)NS(=O)(=O)C1CC1 [Compound 51, (5R,8S)-N-{(1R,2S)-1-[(cyclopropylsulfonyl)carba-moyl]-2-vinylcyclopropyl}-7-[(2S)-2-{[(2S)-2-{[(3,5-dimethylisoxazol-4-yl)sulfonyl]amino}-3,3-dimethylbutanoyl]amino}-3,3-dimethylbutanoyl]-10,10-dimethyl-7-azadispiro[3.0.4.1]decane-8-carboxamide]
15 | 200 nM | C=C[C@@H]1C[C@]1(NC(=O)[C@@H]1C[C@@]2(CN1C(=O)[C@@H](NC(=O)[C@@H](NS(=O)(=O)c1cn(C)cn1)C(C)(C)C)C(C)(C)C)C(C)(C)C21CCC1)C(=O)NS(=O)(=O)C1CC1 [Compound 52, (5R,8S)-N-{(1R,2S)-1-[(cyclopropylsulfonyl)carba-moyl]-2-vinylcyclopropyl}-7-[(2S)-2-{[(2S)-3,3-dimethyl-2-{[(1-methyl-1H-imidazol-4-yl)sulfonyl]amino}butanoyl]amino}-3,3-dimethylbutanoyl]-10,10-dimethyl-7-azadispiro[3.0.4.1]decane-8-carboxamide]
16 | 2150 nM | C=C[C@@H]1C[C@]1(NC(=O)[C@@H]1C[C@@]2(CN1C(=O)[C@@H](NC(=O)c1cocn1)C(C)(C)C)C(C)(C)C21CCC1)C(=O)NS(=O)(=O)C1CC1 [Compound 54, (5R,8S)-N-{(1R,2S)-1-[(cyclopropylsulfonyl)carba-moyl]-2-vinylcyclopropyl}-7-{(2S)-3,3-dimethyl-2-[(1,3-oxazol-4-ylcarbonyl)amino]butanoyl}-10,10-dimethyl-7-azadispiro[3.0.4.1]decane-8-carboxamide]

— patent US20110182850A1, “ORGANIC COMPOUNDS AND THEIR USES” (priority 2009, published 2011)
